Test system: miR-430 target site
Assay: microRNA sensor (Ago2 fused to Adar catalytic subunit)
Type: in vivo, zebrafish
Experimental: In this case, the writer comprises a protein fusion between a protein from the Argonaute family and the catalytic domain of the RNA-editing enzyme ADAR. The recorder must contain the target site of the microRNA of interest, usually the 6 to 8 nucleotides complementary to the miRNA seed region. In the presence of the writer, the recorder and the miRNA of interest, the ternary interaction is recorded as RNA editing in the recorder mRNA. The number of edits will be proportional to the strength of the microRNA-target site interaction. Other variants of this approach include expressing the Ago-Adar writer together with a library of recorders that containing all possible 8-nucleotide sequences as binding site. […]
FIG. 18 depicts a microRNA sensor. miR-430 is a small non-coding regulatory microRNA that recognize their targets mRNAs trough interaction and pairing. miR-430 binds to the effector protein Ago2 and together form a riboprotein complex that recognizes and binds to target mRNAs. miR-430 is the only microRNA expressed during early embryogenesis. […] Only with the tertiary interaction between Ago2, a microRNA, and the target is reconstituted, is editing detected.
Usage of the interactome recorder system to determine microRNA activity in vivo (FIG. 8A). […] In the presence of the writer, the recorder and the miRNA of interest, the ternary interaction is recorded as RNA editing in the recorder mRNA. […]

## CC[C@H](C)[C@@H]1NC(=O)CNC(=O)[C@@H]2Cc3c([nH]c4cc(O)ccc34)[S+]([O-])C[C@@H](NC(=O)CNC1=O)C(=O)N[C@@H](CC(N)=O)C(=O)N1C[C@H](O)C[C@H]1C(=O)N[C@@H]([C@@H](C)[C@@H](O)CO)C(=O)N2 (stereo partly drawn) [alpha-Amanitin]
Embryos injected with alpha-Amanitin
  editing of the recorder: not when endogenous miR-430 expression is inhibited
injection, early embryogenesis
  miR-430 expression: prevents its expression

— patent US12258625B2, “Compositions and methods relating to nucleic acid interaction reporters” (Trustees of Boston University, priority 2022, dated 2025)
